Laboratory results from patent US3980794A, “Method for promoting growth of poultry with 3-(5-nitro-2-imidazolyl)pyrazoles” (Eli Lilly and Company, priority 1975, dated 1976).
In brackets after ≈: the same amount, converted by molar mass.

What was measured:
Treponema hyodysenteriae = experiment: In vitro activity against Treponema hyodysenteriae (Experiment 8); format: cell-based; conditions: Brachyspira hyodysenteriae; repeat test, doubling dilutions 100 to 0.048 mcg./ml.; read-out: minimum inhibitory concentration (MIC)
Description: A number of representative compounds, namely, 1, 5, 6, 7, 12, 13D, 14, and 18, were tested for their in vitro activity against Treponema hyodysenteriae. The treponema were propagated on blood agar plates. Each plate which was prepared contained 20 ml. of trypticase soy agar (Baltimore Biological Laboratory [BBL]) with 5.0 g./l. of yeast extract (Difco) and 5 percent sterile defibrinated horse blood. The plates were sterile plastic 15 × 100 mm. petri plates. Incubation was carried out at 37°C. for 4 days under anaerobic conditions using the BBL Gas Pak system.
The concentrations of test compounds in this initial test were prepared in dilutions ranging from 2000 mcg./ml. to 7.8 mcg./ml. The test procedure was carried out in the following manner. Five ml. of a twenty-fold concentration in tryptose broth (Difco) of each filter-sterilized test compound dilution was mixed in a series of flasks containing 90 ml. of melted trypticase soy agar with yeast extract. Five ml. of horse blood was then added per flask. The contents of these flasks were then used to prepare a series of blood agar plates in doubling decreasing dilutions ranging from 100 mcg./ml. to 0.39 mcg./ml.
The treponema for inoculation of these plates were obtained by adding 3.0 ml. of sterile tryptose broth to the surface of a plate on which the treponema had been propagated. […]

[1] = tested on: Pasteurella multocida and Pasteurella hemolytica; experiment: In vivo activity against pasteurellosis in calves (Experiment 10)
Description: The in vivo activity of compound 1 against pasteurellosis in calves was determined in the following manner. Twelve calves weighing approximately 180 pounds each were obtained from a commercial source and were brought to the research facility where they were weighed individually and identified by ear tag. The calves were divided into two groups of six calves each, and two hundred thousand ascaris ova were administered to each calf seven days prior to the pasteurella challenge. […] The compound was administered orally in two equal doses of 2000 mg. each, using capsules containing 500 mg. of compound each. The actual dosage of the test compound ranged from about 45 to about 55 mg. per kilo per head per day. The treatment was initiated one day prior to the pasteurella challenge and was continued daily for a total of seven days. […] The pasteurella challenge was prepared using three isolates of Pasteurella multocida and three isolates of Pasteurella hemolytica, all of bovine origin. The isolates were grown in tryptose culture for about 18 hours and then mixed in equal parts in a challenge cocktail. Approximately 0.1 ml. was used to aerosol-expose each calf. This exposure was carried out by placing a plastic bag over the head of each calf and running the aerosol into the bag. The pasteurella challenge was timed to coincide with the period of mechanical injury to the lung tissue caused by the […] larvae migration. […] All the calves were sacrificed on the tenth day post-pasteurella challenge, and the extent of pneumonic lesions in the lung tissues noted. Thus, after the calves were sacrificed, the lungs were removed from each calf and examined for lesions grossly. In addition, attempts were made to re-isolate pasteurella from the pneumonic lung tissue.

Salmonella dublin = experiment: In vivo activity against Salmonella dublin in calves (Experiment 11)
Description: The in vivo activity of compound 1 against Salmonella dublin was determined in the following manner.
The calves for the in vivo experiment were purchased from a commercial source. Thirty-two calves were brought to the research facility where they were weighed individually and identified by ear tag. Each calf weighed about 90 pounds. The calves were then randomly divided by weight into eight groups of four calves each. Rectal swabs for Salmonella dublin and Escherichia coli isolation were obtained before treatment was started.
Four groups of four calves each were treated with the test compound. Treatment was started 24 hours after challenge with Salmonella dublin and continued for six consecutive days. Treatment was accomplished by oral administration twice daily of gelatin capsules of test compound 1. During the treatment, rectal swabs were taken daily of each calf and bacterial isolations for salmonella species were run. At the end of the trial, rectal swabs for E. coli and salmonella species were taken again. The trials were terminated the day following the last treatment, at which time the calves were weighed and sacrificed.
In the chart, column 1 records the dose rate/day/calf; column 2, the dose rate in mg./lb.; column 3, the survival ratio observed; and column 4, the occurrence of salmonella isolates obtained at necropsy.

Pseudomonas sp. = experiment: In vitro activity against fish bacterial pathogens, tube dilution (Experiment 13); format: cell-based; conditions: tryptose broth, overnight, 37°C., read-out: minimum inhibitory concentration (MIC), Pseudomonas
Salmonella choleraesuis = experiment: In vivo activity against Salmonella choleraesuis in pigs (Experiment 14)
Description: The in vivo activity of compound 1 against Salmonella choleraesuis was determined in the following manner.
Twenty-four healthy feeder pigs were purchased from a local farm and brought to the research facility where they were weighed individually and identified by ear tag. Four groups of six pigs each were formed so that the average pig weight per group was similar.
Two groups of pigs were given compound 1 at a level of 50 g./ton in the feed. The remaining two groups of pigs were fed the same basal ration without compound 1. Twenty-four hours after initiation of the compound 1 feed treatment, all four groups were challenged orally using 10 ml. of a broth culture of Salmonella choleraesuis.
The pigs were weighed weekly throughout the duration of the experiment and on the 28th day postsalmonella challenge, each surviving pig was killed and the salmonella-caused lesions were recorded. Chart 14, which follows, contains a summary of the results from the trial.

Aeromonas liquefaciens = experiment: In vitro activity against fish bacterial pathogens, tube dilution (Experiment 13); conditions: Aeromonas hydrophila, read-out: minimum inhibitory concentration (MIC), Aeromonas liquetaciens
[2] = 100 mg./day oral (1.25 mg./lb.)
[3] = 50 g./ton continuous, total of both replicates

In the case of `Cn1nc(-c2ncc([N+](=O)[O-])n2C)c(C#N)c1N` [Compound 1, 5-Amino-1-methyl-3-(1-methyl-5-nitro-2-imidazolyl)pyrazole-4-carbonitrile], the MIC (Treponema hyodysenteriae) is reported as 0.097 µg/mL (≈ 0.392 µM), the “pasteurella colonies in lungs of a third treated calf” value ([1]; at necropsy) is reported as “only three pasteurella colonies” and the “calves with moderate number of pasteurella colonies in lungs” value ([1]; at necropsy, six calves) is reported as “Another treated calf”. For the same compound, the “calves with numerous colonies of pasteurella in lungs” value ([1]; at necropsy, six calves) was “One of the treated calves”, the “calves yielding no pasteurella from the lung tissue” value ([1]; at necropsy, six calves) was “Three of the treated calves” and the “treatment response (control of lung lesions and reisolation of pasteurella)” value ([1]; oral, about 45 to about 55 mg. per kilo per day) was “All the calves treated with compound 1 showed a treatment response”. The body temperature ([1]; oral, about 45 to about 55 mg. per kilo per head per day, versus infected control) was “considerably lower”, the “calves with moderate pneumonic lung lesion” value ([1]; oral, tenth day post-challenge, six calves) was “A single treated calf” and the “Salmonella isolates at necropsy” value (Salmonella dublin; [2]) was 1/4. The “Survival Ratio” value (Salmonella dublin; [2]) was 4/4, the “Salmonella isolates at necropsy” value (Salmonella dublin; 250 mg./day oral (2.5 mg./lb.)) was 2/4 and the “Survival Ratio” value (Salmonella dublin; 250 mg./day oral (2.5 mg./lb.)) was 4/4. For the same compound, the “Salmonella isolates at necropsy” value (Salmonella dublin; 500 mg./day oral (5 mg./lb.)) was 1/4, the “Survival Ratio” value (Salmonella dublin; 500 mg./day oral (5 mg./lb.)) was 4/4 and the “Salmonella isolates at necropsy” value (Salmonella dublin; 1000 mg./day oral (11 mg./lb.)) was 0/4. For the same compound, the “Survival Ratio” value (Salmonella dublin; 1000 mg./day oral (11 mg./lb.)) was 4/4, the “salmonella isolates from organs of treated calves” value (Salmonella dublin; at termination of the trial) was “reduced number of salmonella isolates” and the “control of Salmonella dublin in calves” value (Salmonella dublin; compound 1 oral, about 100 to about 1000 mg./day/calf) was “effective in controlling Salmonella dublin in calves”. The MIC (Pseudomonas sp.) was 6.25 µg/mL (≈ 25.3 µM), the mortality (Salmonella choleraesuis; 50 g./ton continuous) was “prevented mortality” and the “Mean Pig Wt.” value (Salmonella choleraesuis; 50 g./ton continuous, Avg., day 0) was 30.0 Lbs. The “Mean Pig Wt.” value (Salmonella choleraesuis; 50 g./ton continuous, Avg., day 7) was 31.8 Lbs, the “Mean Pig Wt.” value (Salmonella choleraesuis; 50 g./ton continuous, Avg., day 14) was 33.5 Lbs and the “Mean Pig Wt.” value (Salmonella choleraesuis; 50 g./ton continuous, Avg., day 21) was 39.4 Lbs. The “Mean Pig Wt.” value (Salmonella choleraesuis; 50 g./ton continuous, Avg., day 28) was 45.5 Lbs, the “Lesions at Necropsy” value (Salmonella choleraesuis; 50 g./ton continuous, Rep. 1) was 2/6 and the “No. Dead/No. in Grp.” value (Salmonella choleraesuis; 50 g./ton continuous, Rep. 1) was 0/6. For the same compound, the “Mean Pig Wt.” value (Salmonella choleraesuis; 50 g./ton continuous, Rep. 1, day 0) was 30.2 Lbs, the “Mean Pig Wt.” value (Salmonella choleraesuis; 50 g./ton continuous, Rep. 1, day 7) was 32.5 Lbs and the “Mean Pig Wt.” value (Salmonella choleraesuis; 50 g./ton continuous, Rep. 1, day 14) was 33.8 Lbs. For the same compound, the “Mean Pig Wt.” value (Salmonella choleraesuis; 50 g./ton continuous, Rep. 1, day 21) was 38.8 Lbs, the “Mean Pig Wt.” value (Salmonella choleraesuis; 50 g./ton continuous, Rep. 1, day 28) was 44.2 Lbs and the “Lesions at Necropsy” value (Salmonella choleraesuis; 50 g./ton continuous, Rep. 2) was 1/6. For the same compound, the “No. Dead/No. in Grp.” value (Salmonella choleraesuis; 50 g./ton continuous, Rep. 2) was 0/6, the “Mean Pig Wt.” value (Salmonella choleraesuis; 50 g./ton continuous, Rep. 2, day 0) was 29.7 Lbs and the “Mean Pig Wt.” value (Salmonella choleraesuis; 50 g./ton continuous, Rep. 2, day 7) was 31.0 Lbs. The “Mean Pig Wt.” value (Salmonella choleraesuis; 50 g./ton continuous, Rep. 2, day 14) was 33.2 Lbs, the “Mean Pig Wt.” value (Salmonella choleraesuis; 50 g./ton continuous, Rep. 2, day 21) was 40.0 Lbs and the “Mean Pig Wt.” value (Salmonella choleraesuis; 50 g./ton continuous, Rep. 2, day 28) was 46.7 Lbs. The “improved weight gain over that of infected pigs” value (Salmonella choleraesuis; 50 g./ton continuous, average) was 4.3 lbs./pig, the “Lesions at Necropsy” value (Salmonella choleraesuis; [3]) was 3/12 and the “No. Dead/No. in Grp.” value (Salmonella choleraesuis; [3]) was 0/12. The “control of Salmonella choleraesuis in swine” value (Salmonella choleraesuis; compound 1 in the feed about 50 g./ton) was “effective in the control of Salmonella choleraesuis in swine” and the MIC (Aeromonas liquefaciens) was 3.12 µg/mL (≈ 12.6 µM).
